Experimental findings from ChEMBL document CHEMBL3044646, “Management of tomato leaf mould caused by Cladosporium fulvum with trifloxystrobin” (2007) are described below.

Assay type in all cases: functional
Experiment [1] relates to Fulvia fulva. The experiment is described as follows: Antifungal activity against Passalora fulva infected tomato cultivar Alma F1 plants grown in growth chamber assessed as reduction in lesions on leaf at 20 ug a.i./ml sprayed 48 hr post-inoculation measured after 22 days relative to control. Further details: scale not given: the % may be the effect or the level left.
Experiment [2] relates to Fulvia fulva. Put plainly: Antifungal activity against Passalora fulva infected tomato cultivar Alma F1 plants grown in growth chamber assessed as reduction in lesions on leaf at 20 ug a.i./ml sprayed 24 hr post-inoculation measured after 22 days relative to control. Further details: scale not given: the % may be the effect or the level left.
Experiment [3] deals with Fulvia fulva. Put plainly: Antifungal activity against Passalora fulva infected tomato cultivar Alma F1 plants grown in growth chamber assessed as inhibition of sporulation at 20 ug a.i./ml applied at 15 days post-inoculation after appearance of symptoms followed by incubation in growth chamber for 72 hr relative to control.
The test system of experiment [4] is Fulvia fulva. Put plainly: Antifungal activity against Passalora fulva infected tomato cultivar Alma F1 plants grown in growth chamber assessed as inhibition of sporulation at 10 ug a.i./ml applied at 15 days post-inoculation after appearance of symptoms followed by incubation in growth chamber for 72 hr relative to control.
Experiment [5] deals with Fulvia fulva. The experiment is described as follows: Antifungal activity against Passalora fulva infected tomato cultivar Alma F1 plants grown in growth chamber assessed as inhibition of sporulation at 5 ug a.i./ml applied at 15 days post-inoculation after appearance of symptoms followed by incubation in growth chamber for 72 hr relative to control.
For experiment [6], the system named is Fulvia fulva. The experiment is described as follows: Antifungal activity against Passalora fulva infected tomato cultivar Alma F1 plants grown in growth chamber assessed as reduction in lesions on leaf at 10 ug a.i./ml sprayed 96 hr post-inoculation measured after 22 days relative to control. Also on record: scale not given: the % may be the effect or the level left.

The subject of experiment [7] is Fulvia fulva. Put plainly: Antifungal activity against Passalora fulva infected tomato cultivar Alma F1 plants grown in growth chamber assessed as reduction in lesions on leaf at 10 ug a.i./ml sprayed 48 hr post-inoculation measured after 22 days relative to control. Also on record: scale not given: the % may be the effect or the level left.
Experiment [8] concerns Fulvia fulva. The experiment is described as follows: Antifungal activity against Passalora fulva infected tomato cultivar Alma F1 plants grown in growth chamber assessed as reduction in lesions on leaf at 10 ug a.i./ml sprayed 24 hr post-inoculation measured after 22 days relative to control. Further details: scale not given: the % may be the effect or the level left.
The subject of experiment [9] is Fulvia fulva. Put plainly: Antifungal activity against Passalora fulva infected tomato cultivar Alma F1 plants grown in growth chamber assessed as reduction in lesions on leaf at 5 ug a.i./ml sprayed 96 hr post-inoculation measured after 22 days relative to control. Also on record: scale not given: the % may be the effect or the level left.
The test system of experiment [10] is Fulvia fulva. The experiment is described as follows: Antifungal activity against Passalora fulva infected tomato cultivar Alma F1 plants grown in growth chamber assessed as reduction in lesions on leaf at 5 ug a.i./ml sprayed 48 hr post-inoculation measured after 22 days relative to control. Further details: scale not given: the % may be the effect or the level left.

Experiment [11] deals with Fulvia fulva. Put plainly: Antifungal activity against Passalora fulva infected tomato cultivar Alma F1 plants grown in growth chamber assessed as reduction in lesions on leaf at 5 ug a.i./ml sprayed 24 hr post-inoculation measured after 22 days relative to control. Also on record: scale not given: the % may be the effect or the level left.
Experiment [12] has as its system Fulvia fulva. Put plainly: Antifungal activity against Passalora fulva infected tomato cultivar Alma F1 plants grown in growth chamber assessed as reduction in lesions on leaf at 20 ug a.i./ml sprayed 24 hr prior to inoculation measured after 22 days relative to control. Further details: scale not given: the % may be the effect or the level left.
The test system of experiment [13] is Fulvia fulva. Put plainly: Antifungal activity against Passalora fulva infected tomato cultivar Alma F1 plants grown in growth chamber assessed as reduction in lesions on leaf at 20 ug a.i./ml sprayed 48 hr prior to inoculation measured after 22 days relative to control. Also on record: scale not given: the % may be the effect or the level left.
Experiment [14] has as its system Fulvia fulva. The experiment is described as follows: Antifungal activity against Passalora fulva infected tomato cultivar Alma F1 plants grown in growth chamber assessed as reduction in lesions on leaf at 20 ug a.i./ml sprayed 96 hr prior to inoculation measured after 22 days relative to control. Further details: scale not given: the % may be the effect or the level left.

In experiment [15] the test system is Fulvia fulva. Put plainly: Antifungal activity against Passalora fulva infected tomato cultivar Alma F1 plants grown in growth chamber assessed as reduction in lesions on leaf at 10 ug a.i./ml sprayed 24 hr prior to inoculation measured after 22 days relative to control. Further details: scale not given: the % may be the effect or the level left.
In experiment [16] the test system is Fulvia fulva. The experiment is described as follows: Antifungal activity against Passalora fulva infected tomato cultivar Alma F1 plants grown in growth chamber assessed as reduction in lesions on leaf at 10 ug a.i./ml sprayed 48 hr prior to inoculation measured after 22 days relative to control. Further details: scale not given: the % may be the effect or the level left.

Experiment [17] has as its system Fulvia fulva. The experiment is described as follows: Antifungal activity against Passalora fulva infected tomato cultivar Alma F1 plants grown in growth chamber assessed as reduction in lesions on leaf at 10 ug a.i./ml sprayed 96 hr prior to inoculation measured after 22 days relative to control. Further details: scale not given: the % may be the effect or the level left.

The test system of experiment [18] is Fulvia fulva. The experiment is described as follows: Antifungal activity against Passalora fulva infected tomato cultivar Alma F1 plants grown in growth chamber assessed as reduction in lesions on leaf at 5 ug a.i./ml sprayed 24 hr prior to inoculation measured after 22 days relative to control. Also on record: scale not given: the % may be the effect or the level left.

For experiment [19], the system named is Fulvia fulva. The experiment is described as follows: Antifungal activity against Passalora fulva infected tomato cultivar Alma F1 plants grown in growth chamber assessed as reduction in lesions on leaf at 5 ug a.i./ml sprayed 48 hr prior to inoculation measured after 22 days relative to control. Also on record: scale not given: the % may be the effect or the level left.

The test system of experiment [20] is Fulvia fulva. The experiment is described as follows: Antifungal activity against Passalora fulva infected tomato cultivar Alma F1 plants grown in growth chamber assessed as reduction in lesions on leaf at 5 ug a.i./ml sprayed 96 hr prior to inoculation measured after 22 days relative to control. Further details: scale not given: the % may be the effect or the level left.

Experiment [21] has as its system Fulvia fulva. The experiment is described as follows: Antifungal activity against Passalora fulva infected tomato cultivar Alma F1 plants grown in growth chamber assessed as reduction in lesions on leaf at 20 ug a.i./ml sprayed 96 hr post-inoculation measured after 22 days relative to control. Further details: scale not given: the % may be the effect or the level left.

The subject of experiment [22] is Fulvia fulva. The experiment is described as follows: Antifungal activity against Passalora fulva infected tomato cultivar Alma F1 plants grown in growth chamber assessed as inhibition of sporulation at 100 ug a.i./ml applied at 15 days post-inoculation after appearance of symptoms followed by incubation in growth chamber for 72 hr relative to control. Further details: scale not given: the % may be the effect or the level left.

Experiment [23] deals with Fulvia fulva. Put plainly: Antifungal activity against Passalora fulva infected tomato cultivar Alma F1 plants grown in growth chamber assessed as reduction in lesions on leaf at 100 ug a.i./ml sprayed 24 hr prior to inoculation measured after 22 days relative to control. Further details: scale not given: the % may be the effect or the level left.
Experiment [24] has as its system Fulvia fulva. Put plainly: Antifungal activity against Passalora fulva infected tomato cultivar Alma F1 plants grown in growth chamber assessed as reduction in lesions on leaf at 100 ug a.i./ml sprayed 48 hr prior to inoculation measured after 22 days relative to control. Also on record: scale not given: the % may be the effect or the level left.
Experiment [25] has as its system Fulvia fulva. Put plainly: Antifungal activity against Passalora fulva infected tomato cultivar Alma F1 plants grown in growth chamber assessed as reduction in lesions on leaf at 100 ug a.i./ml sprayed 96 hr prior to inoculation measured after 22 days relative to control. Further details: scale not given: the % may be the effect or the level left.
For experiment [26], the system named is Fulvia fulva. Put plainly: Antifungal activity against Passalora fulva infected tomato cultivar Alma F1 plants grown in growth chamber assessed as reduction in lesions on leaf at 100 ug a.i./ml sprayed 96 hr post-inoculation measured after 22 days relative to control. Also on record: scale not given: the % may be the effect or the level left.
The test system of experiment [27] is Fulvia fulva. The experiment is described as follows: Antifungal activity against Passalora fulva infected tomato cultivar Alma F1 plants grown in growth chamber assessed as reduction in lesions on leaf at 100 ug a.i./ml sprayed 48 hr post-inoculation measured after 22 days relative to control. Also on record: scale not given: the % may be the effect or the level left.

The test system of experiment [28] is Fulvia fulva. Put plainly: Antifungal activity against Passalora fulva infected tomato cultivar Alma F1 plants grown in growth chamber assessed as reduction in lesions on leaf at 100 ug a.i./ml sprayed 24 hr post-inoculation measured after 22 days relative to control. Further details: scale not given: the % may be the effect or the level left.

Consider `CO/N=C(\C(=O)OC)c1ccccc1CO/N=C(\C)c1cccc(C(F)(F)F)c1`, for which the Activity in experiment [1] is recorded as 94.5%; in experiment [2] it was 93.3%; in [6], 60.1%; in experiment [7] it was 76.1%; in experiment [8] it was 89%; in experiment [9], 45.7%. The Activity was 60.9% in experiment [10]; 69.9% in experiment [11]; 96.5% in [12]; 96.5% in experiment [13]; 94% in experiment [14]; 93.9% in [15]. Also, the Activity in experiment [16] is recorded as 90.9%; in experiment [17], 85.3%; in experiment [18], 88.2%; in experiment [19], 85.3%; in [20], 72.8%; in experiment [21], 66.7%. For the same compound, the “inhibition (INH)” value in [3] is 85.1%; in [4], 55.7%; in experiment [5], 23.2%.

Turning to `N#Cc1c(Cl)c(Cl)c(Cl)c(C#N)c1Cl` [CHLOROTHALONIL], the Activity in experiment [22] is recorded as 43.2%; in experiment [23], 96.5%; in [24] it was 95.2%; in experiment [25], 84.4%; in experiment [26], 48.4%; in [27] it was 73.4%. Further, the Activity in experiment [28] was 91%.
